Results reported in the NIST ThermoML archive (doi:10.1021/acs.jced.5b00978).

Legend:
[1] = for vapor or sublimation pressure: Closed cell (Static) method; for Normal melting temperature: DTA
[2] = Molar enthalpy of transition or fusion; settings: Crystal; DSC

COC(=O)c1ccc([N+](=O)[O-])cc1 [methyl p-nitrobenzoate]
[1]
Settings | vapor or sublimation pressure [kPa]
319.01 K, Crystal | 0.00074
321.07 K, Crystal | 0.00092
322.98 K, Crystal | 0.00115
325.03 K, Crystal | 0.00144
326.97 K, Crystal | 0.00177
328.99 K, Crystal | 0.0022
330.91 K, Crystal | 0.00265
332.94 K, Crystal | 0.00333
334.86 K, Crystal | 0.00404
336.9 K, Crystal | 0.00497
338.83 K, Crystal | 0.00597
340.86 K, Crystal | 0.00734
342.77 K, Crystal | 0.00878
344.81 K, Crystal | 0.01073
346.71 K, Crystal | 0.01286
348.76 K, Crystal | 0.01564
350.59 K, Crystal | 0.01843
352.71 K, Crystal | 0.02255
354.57 K, Crystal | 0.02656
356.66 K, Crystal | 0.03213
358.51 K, Crystal | 0.03767
360.47 K, Metastable liquid | 0.05433
360.61 K, Crystal | 0.04542
362.46 K, Metastable liquid | 0.0615
362.47 K, Crystal | 0.05331
364.43 K, Metastable liquid | 0.06971
364.55 K, Crystal | 0.06362
370.48 K, Liquid | 0.1019
372.46 K, Liquid | 0.1149
374.39 K, Liquid | 0.1281
376.4 K, Liquid | 0.1446
378.37 K, Liquid | 0.1615
380.36 K, Liquid | 0.1809
382.3 K, Liquid | 0.2008
384.27 K, Liquid | 0.2241
386.24 K, Liquid | 0.2502
388.24 K, Liquid | 0.2792
390.19 K, Liquid | 0.3091
392.19 K, Liquid | 0.3449
394.11 K, Liquid | 0.3796
396.19 K, Liquid | 0.4248
398.07 K, Liquid | 0.4655
400.05 K, Liquid | 0.5141
401.96 K, Liquid | 0.5665
403.96 K, Liquid | 0.6244
405.95 K, Liquid | 0.6894
407.87 K, Liquid | 0.7541
409.86 K, Liquid | 0.8302
411.81 K, Liquid | 0.9078
413.78 K, Liquid | 0.9952
415.75 K, Liquid | 1.088

Settings | Normal melting temperature [°C]
[1], Crystal | 96.2

Settings | Molar enthalpy of transition or fusion [kcal/mol]
[2] | 5.83

COC(=O)c1ccc(C#N)cc1 [methyl p-cyanobenzoate]
[1]
Settings | vapor or sublimation pressure [kPa]
303.93 K, Crystal | 0.00066
306.95 K, Crystal | 0.00092
309.92 K, Crystal | 0.0013
312.93 K, Crystal | 0.00183
315.91 K, Crystal | 0.00252
318.88 K, Crystal | 0.00347
321.94 K, Crystal | 0.00479
324.93 K, Crystal | 0.00649
327.89 K, Crystal | 0.00872
330.89 K, Crystal | 0.01165
333.86 K, Crystal | 0.01562
336.84 K, Crystal | 0.02058
339.83 K, Liquid | 0.02686
342.81 K, Liquid | 0.0331
345.8 K, Liquid | 0.04054
348.76 K, Liquid | 0.04932
351.75 K, Liquid | 0.06007
354.72 K, Liquid | 0.07314
357.79 K, Liquid | 0.08912
360.66 K, Liquid | 0.1059
363.64 K, Liquid | 0.1276
366.47 K, Liquid | 0.1508
369.42 K, Liquid | 0.1793
372.4 K, Liquid | 0.2131
375.39 K, Liquid | 0.2508
378.3 K, Liquid | 0.2957
381.25 K, Liquid | 0.3487
384.19 K, Liquid | 0.4061
387.18 K, Liquid | 0.4767
390.14 K, Liquid | 0.5554
393.05 K, Liquid | 0.644

Settings | Normal melting temperature [°C]
[1], Crystal | 65.1

Settings | Molar enthalpy of transition or fusion [kcal/mol]
[2] | 5.21
